Results on five molecules are retold here after ChEMBL document CHEMBL5625205, “3-Methoxy-2-phenylimidazo[1,2-b]pyridazines highly active against Mycobacterium tuberculosis and Mycobacterium marinum” (Eur J Med Chem, 2023).

Data set [1] is described as follows: Metabolic stability in mouse liver microsomes assessed as intrinsic clearance incubated for 60 mins in presence of NADPH. Format: ADME, Microsome. Conditions: read-out: CLH. (In general: Liver microsomes are vesicles of endoplasmic reticulum, rich in cytochrome P450 enzymes.)
A short description of data set [2]: Metabolic stability in mouse liver microsomes assessed as half life incubated for 60 mins in presence of NADPH. Type of data set: ADME, Microsome.
Another data set deals with A549. The experiment in a line: Cytotoxicity against human A549 cells incubated for 48 hrs by MTT assay. Format: functional, cell-based. Particulars: A549, 48 h.
In data set [3] the test system is Mycobacterium tuberculosis. The experiment in a line: Antimycobacterial activity against Mycobacterium tuberculosis H37Ra infected in mouse assessed as reduction in relative light unit in lung at 300 mg/kg,po administrated once daily for 5 days. Format: functional, organism-based. Particulars: time 5.0 day.
The nature of data set [4]: Kinetic solubility of compound in DMSO at pH 6.5 incubated for 30 mins by laser nephelometry. Type of data set: physicochemical. Conditions: read-out: Kinetic_solubility.
Data set [5] is described as follows: Octanol-water distribution coefficient, logD of the compound at pH 7.4 by HPLC analysis. Type of data set: physicochemical.
The test system of another data set is Mycobacterium marinum. The experiment in a line: Antimycobacterial activity against Mycobacterium marinum assessed as inhibition of bacterial growth measured for 5 days by luminometer. Particulars: 120 h, time 5 day. Format: functional.
The test system of data set [6] is Mycobacterium tuberculosis. The experiment in a line: Antimycobacterial activity against Mycobacterium tuberculosis H37Ra assessed as inhibition of bacterial growth measured for 5 days by luminometer. Conditions: 120 h, time 5 day. Type of data set: functional.
A short description of data set [7]: Kinetic solubility of compound in DMSO at pH 2 incubated for 30 mins by laser nephelometry. Particulars: read-out: Kinetic_solubility. Format: physicochemical.
For data set [8], the system named is Mycobacterium tuberculosis. The experiment in a line: Antimycobacterial activity against Mycobacterium tuberculosis H37Ra infected in mouse assessed as reduction in relative light unit in lung at 30 to 300 mg/kg,po administrated once daily for 5 days. Format: functional, organism-based. Conditions: dose 30-300 mg/kg, time 5.0 day.
The subject of data set [9] is Mycobacterium tuberculosis. The experiment in a line: Antimycobacterial activity against Mycobacterium tuberculosis H37Ra infected in mouse assessed as reduction in relative light unit in lung at 10 mg/kg,po administrated once daily for 5 days. Format: functional, organism-based. Conditions: time 5.0 day.

Molecules are shown by their SMILES. In brackets after ≈: the same amount, converted by molar mass. Activity calls are given as the source filed them. No cut-off for these calls is given here.

As for `COc1cccc(CSc2ccc3nc(-c4ccccc4)c(OC)n3n2)c1`, the microsomal CLint in data set [1] is > 866 µL/min/mg. For the same molecule, the half-life (commonly how long it takes for the measured level to halve) in data set [2] is < 2 min. The IC50 (as a rule, the point on the concentration scale where inhibition reaches its midpoint) in the data set with A549 was > 260 µM. Moreover, the result in data set [3] was inactive. Further, the solubility kinetic at 0.5 h is < 1.6 µg/mL in data set [4] and 3.1 µg/mL (≈ 8.21 µM) in data set [7]. The log distribution coefficient (logD) (as a rule, the decadic logarithm of the distribution of all forms, ionised or not, between an organic phase and buffer at a given pH) in data set [5] was determined as 4.8. The results for the MIC90 (in the data set on Mycobacterium marinum; in [6]) were 2.65 µM (≈ 1 µg/mL) and ≤ 1.66 µM, respectively.
Regarding `COc1c(-c2ccc(F)cc2F)nc2ccc(N(C)Cc3ccccc3)nn12`, in [1], the microsomal CLint is 215 µL/min/mg. In addition, in data set [2], the half-life is 8 min. Further, the outcome in [8] was inactive. Also, the solubility kinetic at 0.5 h in [4] stood at 1.6 µg/mL (≈ 4.21 µM); in [7], 25 µg/mL (≈ 65.7 µM). The molecule also came in with a logD in [5] of 4.6. In addition, the MIC90 (in the data set with Mycobacterium marinum; in [6]) was 0.64 µM (≈ 0.243 µg/mL) in each case.
As to `COc1c(-c2ccccc2F)nc2ccc(N(C)Cc3ccccc3)nn12`, the microsomal CLint in [1] was 405 µL/min/mg. For the same molecule, the half-life in [2] worked out at 4 min. In data set [8], the result was inactive. Moreover, the values for the solubility kinetic at 0.5 h in data set [4] and in data set [7] were < 1.6 µg/mL and 25 µg/mL (≈ 69 µM), respectively. Further, the logD in [5] amounted to 4.5. For the same molecule, the MIC90 (with Mycobacterium marinum; in data set [6]) was 0.69 µM (≈ 0.25 µg/mL) throughout.
`COc1cccc(CSc2ccc3nc(-c4ccc(F)cc4)c(OC)n3n2)c1`: the microsomal CLint in data set [1] was > 866 µL/min/mg. In [2], the half-life was < 2 min. For the same molecule, in [8], the outcome was inactive. Besides, the solubility kinetic at 0.5 h is < 1.6 µg/mL in [4] and 1.6 µg/mL (≈ 4.05 µM) in data set [7]. This molecule also displayed a logD in [5] of 4.9. Besides, the MIC90 (in the data set with Mycobacterium marinum; in [6]) was 0.63 µM (≈ 0.249 µg/mL) in each case.
For the molecule `CO[C@H]1/C=C/O[C@@]2(C)Oc3c(C)c(O)c4c(O)c(c(/C=N/N5CCN(C)CC5)c(O)c4c3C2=O)NC(=O)/C(C)=C\C=C\[C@H](C)[C@H](O)[C@@H](C)[C@@H](O)[C@@H](C)[C@H](OC(C)=O)[C@@H]1C` [RIFAMPIN], the results for the MIC90 (in the data set with Mycobacterium marinum; in data set [6]) were 0.24 µM (≈ 0.198 µg/mL) and 0.073 µM (≈ 0.0601 µg/mL), respectively. The result in [9] was Active.
